From PubChem BioAssay AID1963838 (Molecular Pharmacology Branch, DTP, NCI, 2024)

Tested on: 855422-203-R-J1-PDC complex spheroid viability
Experiment: Anticancer human tumor 855422-203-R-J1-PDC patient-derived bladder carcinoma cell line growth inhibition [POLQ]
Conditions: for IC50: curve of first compound; for viability, T/C: stronger effect = lower value
Summary of the method: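 Three-cell-type spheroids modelling solid tumor plus stroma served as the readout system; POL inhibitors were tested individually and in combination, concentration ranges set by clinical Cmax where known.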
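Also: spheroids exposed to compounds for seven days before readout.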

`COc1cc(C2c3cc4c(cc3C(OC3OC5COC(C)OC5C(O)C3O)C3COC(=O)C23)OCO4)cc(OC)c1O` (configuration not stated) + COC1C(OC(N)=O)C(O)C(Oc2ccc3c(O)c(NC(=O)c4ccc(O)c(CC=C(C)C)c4)c(=O)oc3c2C)OC1(C)C was tested, and the IC50 (second compound 0.0316 µM) was 0.242 µM, the IC50 (second compound 0.1 µM) was 0.245 µM and the IC50 (second compound 0.316 µM) was 0.227 µM. For the same molecule, the IC50 (second compound 1 µM) was 0.234 µM, the IC50 (second compound 3.16 µM) was 0.21 µM and the IC50 (second compound 10 µM) was 0.215 µM. The viability, T/C (second compound 0.0316 µM, first compound 0.0316 µM) was 99.4%, the viability, T/C (second compound 0.0316 µM, first compound 0.1 µM) was 99.7% and the viability, T/C (second compound 0.0316 µM, first compound 0.316 µM) was 35.1%. The viability, T/C (second compound 0.0316 µM, first compound 1 µM) was 11.9%, the viability, T/C (second compound 0.0316 µM, first compound 3.16 µM) was 8.5% and the viability, T/C (second compound 0.0316 µM, first compound 10 µM) was 5.28%. For the same molecule, the viability, T/C (second compound 0.1 µM, first compound 0.0316 µM) was 95.2%, the viability, T/C (second compound 0.1 µM, first compound 0.1 µM) was 102% and the viability, T/C (second compound 0.1 µM, first compound 0.316 µM) was 36.2%. It also gave a viability, T/C (second compound 0.1 µM, first compound 1 µM) of 12.8%, a viability, T/C (second compound 0.1 µM, first compound 3.16 µM) of 7.81% and a viability, T/C (second compound 0.1 µM, first compound 10 µM) of 4.05%. For the same molecule, the viability, T/C (second compound 0.316 µM, first compound 0.0316 µM) was 99.2%, the viability, T/C (second compound 0.316 µM, first compound 0.1 µM) was 103% and the viability, T/C (second compound 0.316 µM, first compound 0.316 µM) was 29.4%. The viability, T/C (second compound 0.316 µM, first compound 1 µM) was 13.3%, the viability, T/C (second compound 0.316 µM, first compound 3.16 µM) was 8.9% and the viability, T/C (second compound 0.316 µM, first compound 10 µM) was 5.06%. The viability, T/C (second compound 1 µM, first compound 0.0316 µM) was 107%, the viability, T/C (second compound 1 µM, first compound 0.1 µM) was 99.7% and the viability, T/C (second compound 1 µM, first compound 0.316 µM) was 32.2%. The viability, T/C (second compound 1 µM, first compound 1 µM) was 11.6%, the viability, T/C (second compound 1 µM, first compound 3.16 µM) was 7.12% and the viability, T/C (second compound 1 µM, first compound 10 µM) was 4.08%. It also gave a viability, T/C (second compound 3.16 µM, first compound 0.0316 µM) of 128%, a viability, T/C (second compound 3.16 µM, first compound 0.1 µM) of 85.9% and a viability, T/C (second compound 3.16 µM, first compound 0.316 µM) of 29.5%. It also gave a viability, T/C (second compound 3.16 µM, first compound 1 µM) of 12.7%, a viability, T/C (second compound 3.16 µM, first compound 3.16 µM) of 8.6% and a viability, T/C (second compound 3.16 µM, first compound 10 µM) of 4.59%. For the same molecule, the viability, T/C (second compound 10 µM, first compound 0.0316 µM) was 111%, the viability, T/C (second compound 10 µM, first compound 0.1 µM) was 88.8% and the viability, T/C (second compound 10 µM, first compound 0.316 µM) was 29.9%. The viability, T/C (second compound 10 µM, first compound 1 µM) was 12.9%, the viability, T/C (second compound 10 µM, first compound 3.16 µM) was 7.13% and the viability, T/C (second compound 10 µM, first compound 10 µM) was 5.19%.
